The record followed here is PMC9516332 (Frontiers in Oncology, 2022).

What all share (experiment): Kinase panel profiling at 1 µmol/L (MSA or IMAP), percentage inhibition
What all share (type): biochemical

Assay [1] addresses panel of 255 wild-type kinases (Homo sapiens, UniProt Q9UPE1). Particulars: MSSK1; 1 µmol/L single concentration; read-out: %-inhibition, MSSK1.
Assay [2] has as its target T1, panel of 255 wild-type kinases (Homo sapiens, UniProt O00418).
T1 sequence (O00418 1-725): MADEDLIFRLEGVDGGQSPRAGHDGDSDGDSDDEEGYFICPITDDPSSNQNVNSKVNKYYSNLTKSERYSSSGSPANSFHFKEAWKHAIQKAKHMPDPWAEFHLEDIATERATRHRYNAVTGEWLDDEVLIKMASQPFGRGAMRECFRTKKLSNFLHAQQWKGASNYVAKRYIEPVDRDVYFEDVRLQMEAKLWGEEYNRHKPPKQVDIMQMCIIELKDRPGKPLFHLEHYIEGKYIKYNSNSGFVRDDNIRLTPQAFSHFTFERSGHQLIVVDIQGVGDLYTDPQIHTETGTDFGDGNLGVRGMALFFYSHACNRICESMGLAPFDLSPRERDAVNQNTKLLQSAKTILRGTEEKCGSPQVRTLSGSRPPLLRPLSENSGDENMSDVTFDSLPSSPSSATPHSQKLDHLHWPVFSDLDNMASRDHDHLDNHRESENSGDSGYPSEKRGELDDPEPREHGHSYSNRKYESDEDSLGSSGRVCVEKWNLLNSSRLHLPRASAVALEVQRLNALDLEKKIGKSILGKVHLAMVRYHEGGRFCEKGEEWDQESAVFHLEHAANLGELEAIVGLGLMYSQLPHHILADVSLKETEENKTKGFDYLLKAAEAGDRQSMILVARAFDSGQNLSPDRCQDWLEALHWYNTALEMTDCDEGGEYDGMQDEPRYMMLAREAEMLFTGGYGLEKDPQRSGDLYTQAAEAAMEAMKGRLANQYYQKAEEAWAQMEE
Particulars: kinase EEF2K; 1 µmol/L single concentration; read-out: %-inhibition at 1 µmol/L, EEF2K.

Assay [3] concerns the target panel of 255 wild-type kinases (Homo sapiens, UniProt P08069). The following applies: kinase IGF1R; 1 µmol/L single concentration; read-out: %-inhibition at 1 µmol/L, IGF1R.
For assay [4], the target named is T2, panel of 255 wild-type kinases (Homo sapiens, UniProt Q8TD19).
T2 sequence (Q8TD19 1-979): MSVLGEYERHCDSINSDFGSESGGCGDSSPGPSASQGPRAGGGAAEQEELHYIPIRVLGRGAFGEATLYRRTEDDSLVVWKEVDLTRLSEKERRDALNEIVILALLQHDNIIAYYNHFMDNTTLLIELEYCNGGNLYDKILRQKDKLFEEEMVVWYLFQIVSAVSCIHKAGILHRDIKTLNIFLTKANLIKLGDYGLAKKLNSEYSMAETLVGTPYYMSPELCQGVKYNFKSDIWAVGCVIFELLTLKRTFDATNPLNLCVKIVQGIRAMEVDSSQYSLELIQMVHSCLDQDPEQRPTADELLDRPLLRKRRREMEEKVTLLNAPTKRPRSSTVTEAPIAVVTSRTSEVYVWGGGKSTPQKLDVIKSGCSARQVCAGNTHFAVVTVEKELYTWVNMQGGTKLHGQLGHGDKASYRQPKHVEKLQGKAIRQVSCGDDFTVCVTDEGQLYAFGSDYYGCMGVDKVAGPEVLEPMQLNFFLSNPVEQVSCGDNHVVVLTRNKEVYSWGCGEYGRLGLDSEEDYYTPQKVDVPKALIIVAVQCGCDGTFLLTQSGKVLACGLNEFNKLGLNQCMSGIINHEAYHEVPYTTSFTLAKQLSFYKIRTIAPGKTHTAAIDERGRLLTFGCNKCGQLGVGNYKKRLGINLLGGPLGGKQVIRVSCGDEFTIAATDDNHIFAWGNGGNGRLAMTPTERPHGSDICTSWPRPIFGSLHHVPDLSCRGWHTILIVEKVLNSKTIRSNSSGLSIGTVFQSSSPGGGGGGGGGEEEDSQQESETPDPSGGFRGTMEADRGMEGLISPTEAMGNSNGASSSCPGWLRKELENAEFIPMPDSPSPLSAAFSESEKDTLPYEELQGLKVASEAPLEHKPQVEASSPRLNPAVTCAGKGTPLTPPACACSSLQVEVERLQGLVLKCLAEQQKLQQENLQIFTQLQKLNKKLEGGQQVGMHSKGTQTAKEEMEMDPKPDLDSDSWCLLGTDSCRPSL
The following applies: NEK9; 1 µmol/L single concentration; read-out: %-inhibition, NEK9.

Assay [5] addresses T3, panel of 255 wild-type kinases (Homo sapiens, UniProt O43781).
T3 sequence (O43781 1-588): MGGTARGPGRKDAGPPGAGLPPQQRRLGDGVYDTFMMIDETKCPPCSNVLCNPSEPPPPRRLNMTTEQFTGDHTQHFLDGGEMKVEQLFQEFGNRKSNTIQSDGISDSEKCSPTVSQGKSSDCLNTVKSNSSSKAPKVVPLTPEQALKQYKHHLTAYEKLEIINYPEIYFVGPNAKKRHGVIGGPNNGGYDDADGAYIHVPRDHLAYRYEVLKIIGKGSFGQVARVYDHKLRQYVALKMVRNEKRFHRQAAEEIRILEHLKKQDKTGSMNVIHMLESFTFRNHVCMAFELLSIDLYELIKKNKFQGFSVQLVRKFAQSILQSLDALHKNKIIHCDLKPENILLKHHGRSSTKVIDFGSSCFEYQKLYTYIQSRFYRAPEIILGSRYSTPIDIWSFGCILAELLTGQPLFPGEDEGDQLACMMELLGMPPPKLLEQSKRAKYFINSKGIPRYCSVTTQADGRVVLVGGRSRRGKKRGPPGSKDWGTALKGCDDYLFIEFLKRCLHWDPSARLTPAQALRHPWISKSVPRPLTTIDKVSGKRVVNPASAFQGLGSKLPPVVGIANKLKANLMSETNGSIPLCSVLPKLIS
The following applies: kinase DYRK3; 1 µmol/L single concentration; read-out: %-inhibition at 1 µmol/L, DYRK3.

For assay [6], the target named is panel of 255 wild-type kinases (Homo sapiens, UniProt Q9H422). Particulars: kinase HIPK3; 1 µmol/L single concentration; read-out: %-inhibition at 1 µmol/L, HIPK3.

For the compound `CCn1c(=O)c(-c2cc(NC(=O)Nc3ccccc3)c(F)cc2Br)cc2cnc(NC)cc21` [ripretinib], the inhibition at 1 µM in assay [1] is -0.94%; in assay [2], -2%; in assay [3], 3.34%; in assay [4], -2.78%; in assay [5], -3.77%; in assay [6] it was 4%.

For `Cc1nc(NC(=O)N2CCC[C@H]2C(N)=O)sc1-c1ccnc(C(C)(C)C(F)(F)F)c1` [alpelisib], the inhibition at 1 µM in assay [1] is -3.38%; in assay [2], 2%; in assay [3], -0.261%; in assay [4], 2.8%; in assay [5], 10%; in assay [6] it was 7%.

With `FC(F)(F)c1ccc(CNc2ccc(Cc3c[nH]c4ncc(Cl)cc34)cn2)cn1` [pexidartinib], the inhibition at 1 µM is -4% in assay [1]; -2.25% in assay [2]; 17% in assay [3]; 1.33% in assay [4]; 8% in assay [5]; 3.52% in assay [6].

Regarding `CCc1nc(C(N)=O)c(Nc2ccc(N3CCC(N4CCN(C)CC4)CC3)c(OC)c2)nc1NC1CCOCC1` [gilteritinib], the inhibition at 1 µM in assay [1] is 22%; in assay [2] it was -2.72%; in assay [3] it was 99%; in assay [4] it was 21%; in assay [5], 27%; in assay [6], 66%.

As to `O=C(Nc1cnn2ccc(N3CCC[C@@H]3c3cc(F)ccc3F)nc12)N1CC[C@H](O)C1` [larotrectinib], the inhibition at 1 µM in assay [1] was -1.58%; in assay [2], -2%; in assay [3] it was 3.6%; in assay [4], -4.43%; in assay [5] it was -6%; in assay [6] it was -4%.
